Assay in all cases: NCI-60 cell line screen, 48 h
The subject of experiment [1] is HOP-62 NSCLC.
In experiment [2] the test system is U251 CNS.
Experiment [3] relates to OVCAR-3 ovarian.
In experiment [4] the test system is K-562 leukemia.
Experiment [5] concerns RXF 393 renal.
The subject of experiment [6] is HCT-15 colon.
For experiment [7], the system named is OVCAR-5 ovarian.
The test system of experiment [8] is UACC-257 melanoma.
For experiment [9], the system named is SK-MEL-5 melanoma.
Experiment [10] has as its system MDA-MB-231 breast.

Values joined by “and” are separate entries in the source; they are usually repeats but may differ in a detail not shown here. Identical values can stand only once.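 In this assay, cells in 96-well plates receive the compound at five concentrations for 48 hours. Endpoints are linearly interpolated between the surrounding concentrations. Here, GI50 denotes the concentration required for 50% inhibition of growth. TGI: total growth inhibition.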

On to `BrC1=CC=C2NCCCCCCN=C3C=CC(Br)=CC=C3NCCCCCCN=C2C=C1`, for which the TGI in experiment [1], in experiment [2], in [3], in experiment [4], in experiment [5] and in experiment [6] was over 25.5 µM in each case. Moreover, the TGI in experiment [7], in experiment [8] and in experiment [9] was over 25.5 µM throughout.

As for `CC1(C)CC(=O)C(=[N+]=[N-])C(=O)C1`, the TGI in experiment [1], in experiment [3], in experiment [4], in [5], in experiment [6] and in experiment [7] was over 100 µM throughout. The TGI in experiment [8] was over 100 µM.

In the case of `c1cc[c]([Sn]([S]c2cccc3cccnc23)([S]c2cccc3cccnc23)[c]2ccccc2)cc1`, the GI50 is 0.411 µM in experiment [1]; 0.482 µM in experiment [2]; 0.165 µM in [3]; 0.109 µM in experiment [5]; 0.153 µM in [6]; 1.34 µM in experiment [7]. Also, the GI50 in experiment [8] is 0.205 µM; in experiment [9] it was 0.204 µM. The TGI stood at 1.75 µM in experiment [1]; 1.92 µM in experiment [2]; 0.361 µM in experiment [3]; 0.23 µM in [5]; 0.446 µM in experiment [6]; 2.69 µM in [7]. Moreover, the TGI in experiment [8] amounted to 0.559 µM; in experiment [9], 0.483 µM.

As for `CC(C(=O)c1ccc(Cl)cc1)C1OC(=O)C(Cl)=C1Cl` (stereo not given), the TGI is over 100 µM in experiment [1]; over 100 µM in experiment [2]; 71.9 µM in experiment [3]; 58.8 µM in experiment [4]; 35.4 µM in experiment [5]; 50.5 µM in experiment [6]. Further, the TGI in experiment [7], in [8] and in [9] was over 100 µM in each case.

Regarding `COC(=O)OCc1ccc2c(c1)C(=O)c1c-2n(CCCBr)c(=O)c2cc([N+](=O)[O-])ccc12`, the GI50 in [10] was 52.7 µM; in [1], 27.7 µM; in [2], 35.3 µM; in [3] it was over 100 µM; in experiment [5] it was 0.16 µM; in [6], over 100 µM. Moreover, the GI50 in experiment [7], in [8] and in experiment [9] was over 100 µM in each case. The TGI is over 100 µM in [10]; over 100 µM in [1]; over 100 µM in experiment [2]; over 100 µM in experiment [3]; 8.45 µM in [5]; over 100 µM in experiment [6]. For the same compound, the TGI in experiment [7], in [8] and in experiment [9] was over 100 µM throughout.

Consider `N#C/C(N)=C(\C#N)N=Cc1csc2ccccc12`, for which the GI50 in experiment [10] was 15.2 µM; in [1], 15 µM; in experiment [2], 20.2 µM; in experiment [3] it was 19.1 µM; in experiment [4] it was 95.5 µM; in experiment [6] it was 71.9 µM. Besides, the GI50 in experiment [7] is 67.1 µM; in [8], over 100 µM; in experiment [9], 22.9 µM. Moreover, the TGI is 41 µM in [10]; 34.6 µM in experiment [1]; 45.3 µM in [2]; 47.8 µM in experiment [3]; over 100 µM in experiment [4]; over 100 µM in experiment [6]. For the same compound, the TGI in [7], in experiment [8] and in experiment [9] was over 100 µM throughout.

With `CCCCN(CCCC)C(=O)C(=O)C(C)C(=O)CC` (stereo not given), the TGI in experiment [1], in experiment [2], in experiment [3], in experiment [4], in [6] and in experiment [7] was over 100 µM throughout. The compound further displayed a TGI in [8] of over 100 µM.

As to `Cc1cc(C)cc(Nc2ccc([N+](=O)[O-])c(NCCN3CCOCC3)n2)c1`, the TGI was 44.9 µM in experiment [1]; over 100 µM in [2]; 0.00192 µM in [3]; over 100 µM in experiment [4]; 48.8 µM in experiment [5]; over 100 µM in experiment [6]. Besides, the TGI in [7] was over 100 µM; in experiment [8] it was over 100 µM; in [9] it was 0.0332 µM and 0.256 µM. Also, the GI50 in experiment [3] was 0.000367 µM; in experiment [5], 0.0208 µM; in [6], 0.000928 µM; in experiment [7], 0.0576 µM and 0.0361 µM; in [8], over 100 µM; in [9], 0.00082 µM.

On to `COc1ccc2c(c1)cn1c3ccc(O)cc3[nH]c(=O)c21`, for which the GI50 is 0.469 µM in experiment [10]; 0.258 µM in [1]; 0.143 µM in experiment [2]; 0.0968 µM in experiment [3]; 0.0592 µM in experiment [5]; 0.111 µM in experiment [6]. In addition, the results for the GI50 in [7], in [8] and in experiment [9] were 2.79 µM, 0.836 µM and 0.0362 µM, respectively. Moreover, the TGI turned out to be 2.47 µM in experiment [10]; 17.9 µM in [1]; 1.9 µM in [2]; 1.74 µM in [3]; 0.627 µM in experiment [5]; 2.21 µM in [6]. The TGI in [7] worked out at 21.5 µM; in [8] it was 18.5 µM; in [9], 1.32 µM.

In the case of `CCCCCC(O)(CCCCC)CCCCCCCCC1=C(O)c2[nH]c(=O)ccc2C(=O)C1=O`, the TGI in [1] was determined as 24.9 µM; in experiment [2], 16.7 µM; in experiment [3] it was 16.2 µM; in experiment [4], 26.7 µM; in [5], 21.4 µM; in experiment [6] it was 16.3 µM. The TGI in experiment [7] is 35 µM; in experiment [8] it was 14.3 µM; in experiment [9], 12.9 µM.

With `c1ccc2cc(Cn3c[n+](Cc4ccc5ccccc5c4)c4ccccc43)ccc2c1`, the GI50 in experiment [10] is 1.1 µM; in experiment [3], 0.927 µM; in [7] it was 1.46 µM; in [8] it was 1.39 µM; in experiment [9] it was 0.556 µM. Besides, the TGI in experiment [10] stood at 2.47 µM; in experiment [3], 2.22 µM; in experiment [7], 2.89 µM; in experiment [8] it was 2.97 µM; in [9] it was 1.86 µM.

With `COc1cc(Cl)c2c3c(c(C(=O)c4ccccc4)oc13)CCC2`, the TGI in experiment [1], in experiment [2], in experiment [3], in experiment [4], in [5] and in [6] was over 100 µM throughout. In addition, the TGI in experiment [8] and in experiment [9] was over 100 µM each time.

For the compound `COc1cc2c([C@@H](OC(=O)c3ccccc3)c3ccc4c(c3)OCO4)nccc2c(OC)c1OC`, the TGI was over 100 µM in experiment [1]; over 100 µM in experiment [2]; over 100 µM in [3]; over 100 µM in experiment [4]; 85.3 µM in experiment [5]; over 100 µM in experiment [6]. For the same compound, the TGI in experiment [7] is over 100 µM; in experiment [8], over 100 µM; in experiment [9] it was 69.8 µM.

As for `C#C[C@H](CCCC)OC(=O)N[C@H](C)c1ccccc1`, the TGI is over 100 µM in experiment [1]; over 100 µM in experiment [2]; over 100 µM in experiment [3]; over 100 µM in experiment [4]; 92.4 µM in experiment [5]; 99 µM in [7]. The TGI in [8] amounted to 71 µM; in experiment [9] it was 37 µM.

Consider `Cc1ccc(NC(=O)C2C(=O)N(c3ccc(C)c(C)c3)C(=O)/C2=N\NC(N)=S)cc1C` (stereo not given), for which the TGI in experiment [2], in experiment [3], in [4], in [6] and in [8] was over 100 µM in each case.

On to `C=CCC(N[C@H](CO)c1ccccc1)c1cn(S(=O)(=O)c2ccc(C)cc2)c2ccccc12` (stereo not given in full), for which the GI50 was 10.7 µM in [10]; 16.8 µM in experiment [1]; 17.6 µM in [2]; over 100 µM in experiment [3]; 2.72 µM in [4]; 23.7 µM in [6]. The values for the GI50 in [7], in [8] and in experiment [9] were over 100 µM, 10.7 µM and 26.1 µM, respectively. The TGI in experiment [10] is 32.3 µM; in [1] it was 33.5 µM; in experiment [2], 36 µM; in [3] it was over 100 µM; in experiment [6], 60.2 µM; in experiment [7], over 100 µM. Besides, the TGI turned out to be 26.7 µM in experiment [8] and 43.8 µM in [9].

`O=C(O)/C(=C\c1ccccc1Cl)S(=O)(=O)c1ccccc1`: the TGI in [1], in [2], in [4], in experiment [5], in [6] and in experiment [7] was over 100 µM in each case. Moreover, the TGI in experiment [8] and in experiment [9] was over 100 µM throughout.

In the case of `c1cc(-c2cn[nH]c2)cc(-c2cn[nH]c2)c1`, the TGI in experiment [1] is over 100 µM; in experiment [2], over 100 µM; in [3] it was over 100 µM; in experiment [4], over 100 µM; in [5], 36.8 µM; in experiment [6] it was 96.4 µM. The TGI in experiment [8] and in experiment [9] was over 100 µM in each case.

`CC1CCP(=O)(c2ccccc2)CC1` (stereo not given): the TGI in experiment [1], in [2], in [3], in experiment [4], in experiment [5] and in experiment [6] was over 100 µM in each case. The TGI in [7], in experiment [8] and in [9] was over 100 µM throughout.

As for `O=C1c2ccn(CCCCN3CCCCC3)c2C(=O)c2c1c(O)c1ccccc1c2O`, the GI50 in [1] was 13.4 µM; in experiment [2], 6.16 µM; in experiment [3], 10.5 µM; in experiment [4], 2.68 µM; in experiment [5], 5.54 µM; in [6], 2.74 µM. For the same compound, the figures for the GI50 in experiment [7], in [8] and in experiment [9] were 17.9 µM, 5.83 µM and 13.3 µM, respectively. The TGI was 35.4 µM in experiment [1]; 41.9 µM in experiment [3]; 18 µM in [5]; 7.98 µM in [6]; over 46 µM in experiment [7]; 12.2 µM in [8]. The TGI in experiment [9] is 33.9 µM.

In the case of `Cn1c2ccccc2c(=O)c2c([N+](=O)[O-])ccc(NCCN)c21`, the TGI in experiment [1] worked out at 30.7 µM; in experiment [2], 28.1 µM; in experiment [3] it was 27.2 µM; in experiment [5], 23.3 µM; in [6], 26.7 µM; in experiment [7], 26.9 µM. In addition, the figures for the TGI in experiment [8] and in experiment [9] were 26.9 µM and 27.2 µM, respectively.

On to `COc1cc(NCC2COc3c(ccc(OC)c3OC)C2=O)c([N+](=O)[O-])cc1OC` (stereo not given), for which the TGI in experiment [10], in experiment [1], in experiment [2], in experiment [3], in experiment [4] and in experiment [6] was over 100 µM in each case. Further, the TGI in experiment [7], in experiment [8] and in [9] was over 100 µM throughout.

As for `CC(=O)[C-](C(C)=O)c1ccccc1.CC(=O)[C-](C(C)=O)c1ccccc1.CC[O-].CC[O-].[Ti+4]`, the GI50 in experiment [1], in [2], in experiment [3], in experiment [4], in experiment [6] and in [7] was over 100 µM each time. Moreover, the GI50 in [8] and in [9] was over 100 µM each time. Also, the TGI in experiment [1], in experiment [2], in experiment [3], in experiment [4], in [6] and in [7] was over 100 µM each time. Moreover, the TGI in [8] and in [9] was over 100 µM throughout.

Turning to `COc1ccc(C(=O)C(C(=O)C(=O)Nc2nccs2)c2ccc(OC)cc2)cc1` (stereo not given), the TGI in experiment [2], in [3], in experiment [4], in experiment [5], in [6] and in experiment [7] was over 100 µM throughout. In addition, the TGI in [8] and in experiment [9] was over 100 µM each time.
